Laboratory results as given in patent US20050037446A1, “Agents that recognize src when phosphorylated at serine 17” (priority 2001, published 2005).

Test system: Ras
Assay: Ras activation affinity assay (GST-Raf1-RBD), Hek293 cells
Assay type: cell-based
Method: Endogenous GTP-loaded Ras was determined using a Ras activation affinity assay as follows. Hek293 cells were grown, stimulated, and lysed as described above. Activated Ras was assayed as previously described (Schmitt and Stork, Mol. Cell. Biol. 21:3671-83, 2001). Briefly, equivalent amounts of lysates from stimulated cells were incubated with GST-Rafl-RBD (Ras-binding domain) as specified by the manufacturer (Upstate Biotechnology, Lake Placid, N.Y.). Proteins were eluted with 2×Laemmli buffer and applied to a 12% SDS polyacrylamide gel. Proteins were transferred to a PVDF membrane, blocked at room temperature for 1 hour in 5% milk and probed with either Ras or Flag antibody overnight at 4° C., followed by an HRP-conjugated anti-mouse secondary. Proteins were detected using enhanced chemiluminescence.
Mutation of tyrosine 527 of Src to phenylanaline (Y527F) produces a constitutively active (oncogenic) Src by eliminating the inhibitory phosphorylation at Y527 (Xu et al. Mol. Cell. 3(5): 629-38, 1999; Brown and Cooper, Biochim. Biophys. Acta 1287(2-3): 121-49, 1996). To determine the effect of this mutant on Ras and Rap1 activation, Hek293 cells were transfected with Flag-tagged Rap1 or Flag-tagged Ras, in the presence or absence of pcDNA3, SrcY527F, SrcS17A/Y527F, SrcS17D/Y527F, CBR, or Cb1-ct using the methods described above. […]

CC(C)NCC(O)c1ccc(O)c(O)c1 (stereo not shown) [isoproterenol]
Activation of endogenous Ras: activated endogenous Ras
